Source: patent US9370570B2, “Polychlorinated biphenyls and squalene-containing adjuvants” (priority 2007, dated 2016)

Experiment: levels of seven dioxins and ten furans in squalene samples, as TEQs
Details: WHO 2005 TEFs; + = 1,2,3,4,6,7,8-HpCDD
Experimental: In addition to measuring PCB content, levels of seven dioxins and ten furans were measured. […] TEQs from PCBs, dioxins and furans for these samples were as follows, measured in pg/g according to WHO 2005 TEFs: […]

SMILES	TEQ from Dioxins
CC(C)=CCCC(C)=CCCC(C)=CCCC=C(C)CCC=C(C)CCC=C(C)C [squalene, 2,6,10,15,19,23-hexamethyl-2,6,10,14,18,22-tetracosahexaene]	28.158 ^+ pg/g

Experiment: not given
Details: WHO 2005 TEF values for PCBs in humans; fraction of the toxicity of 2,3,7,8-TCDD dioxin (reference value 1); cited from earlier work

SMILES	TEF (toxic equivalency factor)
Clc1cc2c(cc1Cl)Oc1cc(Cl)c(Cl)cc1O2 [2,3,7,8-TCDD, reference compound]	1
Clc1ccc(-c2ccc(Cl)c(Cl)c2)cc1Cl [PCB #77, 3,3′,4,4′-tetrachlorobiphenyl]	0.0001
Clc1ccc(-c2cc(Cl)c(Cl)c(Cl)c2)cc1 [PCB #81, 3,4,4′,5-tetrachlorobiphenyl]	0.0003
Clc1ccc(-c2ccc(Cl)c(Cl)c2Cl)cc1Cl [PCB #105]	0.00003
Clc1ccc(-c2cc(Cl)c(Cl)c(Cl)c2Cl)cc1 [PCB #114]	0.00003
Clc1ccc(-c2cc(Cl)c(Cl)cc2Cl)cc1Cl [PCB #118]	0.00003
Clc1ccc(-c2cc(Cl)c(Cl)c(Cl)c2)c(Cl)c1 [PCB #123]	0.00003
Clc1ccc(-c2cc(Cl)c(Cl)c(Cl)c2)cc1Cl [PCB #126, 3,3′,4,4′,5-pentachlorobiphenyl]	0.1
Clc1ccc(-c2cc(Cl)c(Cl)c(Cl)c2Cl)cc1Cl [PCB #156]	0.00003
Clc1cc(-c2ccc(Cl)c(Cl)c2Cl)cc(Cl)c1Cl [PCB #157]	0.00003
Clc1cc(Cl)c(-c2cc(Cl)c(Cl)c(Cl)c2)cc1Cl [PCB #167]	0.00003
Clc1cc(-c2cc(Cl)c(Cl)c(Cl)c2)cc(Cl)c1Cl [PCB #169, 3′,4,4′,5,5′-hexachlorobiphenyl]	0.03
Clc1cc(Cl)c(-c2cc(Cl)c(Cl)c(Cl)c2Cl)cc1Cl [PCB #180]	0.00001
Clc1cc(-c2cc(Cl)c(Cl)c(Cl)c2Cl)cc(Cl)c1Cl [PCB #189]	0.00003
